Measured values as given in US20240208930A1, “CRYSTALLINE FORM OF SPHINGOSINE-1-PHOSPHATE RECEPTOR AGONIST” (LG CHEM, LTD., priority 2021, published 2024).
Entries after “also recorded” stand apart in the source; their conditions may differ.

Legend:
[1] = Stability test (XRPD, naked eye observation, HPLC) after storage under accelerated and severe conditions; assay type: physicochemical
Procedure: To investigate the stability of Crystalline Form A, after storage for 2 weeks under accelerated (40° C./75% RH) and severe (80° C.) conditions, the physical stability was confirmed by naked eye observation and XRD measurement (FIG. 7), and chemical stability was confirmed by the analysis of the sample purity using HPLC (Table 3). HPLC equipment and analysis methods are represented in Table 1.
A stability test was carried out in the same manner as in Example 2. • (5) Results

[2] = DVS (dynamic vapor sorption); assay type: physicochemical
Procedure: Moisture sorption/desorption data were collected on a DVS Intrinsic instrument (Surface Measurement Systems). Samples were not dried prior to analysis. Sorption and desorption data were collected over the range of 5% to 95% RH with 10% RH increments under nitrogen. The equilibrium criterion used in the analysis was less than 0.0100% change in weight in 5 minutes with a maximum equilibration time of 3 hours. Data on the initial moisture content of the samples were not corrected. The results are represented in FIG. 6.

[3] = severe condition (80° C.), 2 weeks

Row | change in the crystal form in XRPD ([1]; 2 weeks, accelerated (40° C./75% RH) and severe (80° C.) conditions) | time physically stable ([1]; 80° C.) | sample purity using HPLC ([1]; Accelerated condition (40° C./75% RH), 1 week) [%] | sample purity using HPLC ([1]; Accelerated condition (40° C./75% RH), 2 weeks) [%] | sample purity using HPLC ([1]; Accelerated condition (40° C./75% RH), 3 days) [%] | sample purity using HPLC ([1]; Initial) [%] | sample purity using HPLC ([1]; Severe condition (80° C.), 1 week) [%] | sample purity using HPLC ([1]; Severe condition (80° C.), 3 days) [%] | amount of impurities in the sample [1, 3] | sample purity using HPLC [1, 3] [%] | SMILES | physical/chemical stability ([1]; 2 weeks, accelerated (40° C./75% RH) and severe (sealed state, 80° C.) conditions) | XRPD pattern of the solid retrieved after DVS [2] | naked eye observation ([1]; after 2 weeks of severe condition (80° C.))
1 | no change in the crystal form | – | – | – | – | – | – | – | – | – | CC(C)n1nc(Cl)c2cc(COc3ccc4c(c3)CCC(CN3CCC(C(=O)O)CC3)=C4Cl)ccc21 [Crystalline Form A, 1-[1-chloro-6-(3-chloro-1-isopropyl-1H-indazol-5-ylmethoxy)-3,4-dihydro-naphthalen-2-ylmethyl]-piperidine-4-carboxylic acid] | physically/chemically stable; also recorded: physical/chemical stability was confirmed | XRPD patterns similar to the initial ones | –
2 | – | at least 2 weeks | 98.1 | 98.8 | 98.8 | 100.7 | 87.2 | 90.7 | increased | 77.3 | CC(C)n1nc(Cl)c2cc(COc3ccc4c(c3)CCC(CN3CCC(C(=O)O)CC3)=C4Cl)ccc21 [amorphous form, 1-[1-chloro-6-(3-chloro-1-isopropyl-1H-indazol-5-ylmethoxy)-3,4-dihydro-naphthalen-2-ylmethyl]-piperidine-4-carboxylic acid] | – | – | free-flowing particles that were broken when struck and bubble-like yellow masses
